The structures appear in SMILES notation.

This experiment relates to RS4;11 cells. Nature of the experiment: Cell viability assay (CellTiter-Glo) in RS4;11 cells. Conditions: Homo sapiens, 72 h; RS4;11 cells; cell viability, 3 days, CellTiter-Glo; read-out: IC50. Format: cell-based. An outline of the steps:
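Three-day compound treatment of RS4;11 ALL cells (5000/well, 3-fold dilution series of 8 or 12 points), with IC50 from a nonlinear least-squares fit to CellTiter-Glo viability data.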
As for `Cc1cnc(Nc2ccc(N3CCN(CC(=O)NCCOCCOCCOCCOCCOCCNc4ccc5c(c4)C(=O)N(C4CCC(=O)NC4=O)C5=O)CC3)cc2)nc1Nc1cccc(S(=O)(=O)NC(C)(C)C)c1` (stereo not drawn) [JA-241, 2-(4-(4-((4-((3-(N-(tert-butyl)sulfamoyl)phenyl)amino)-5-methylpyrimidin-2-yl)amino)phenyl)piperazin-1-yl)-N-(17-((2-(2,6-dioxopiperidin-3-yl)-1,3-dioxoisoindolin-5-yl)amino)-3,6,9,12,15-pentaoxaheptadecyl)acetamide], the IC50 came out at 1.04 µM.
Next, `Cc1cnc(Nc2ccc(N3CCN(CC(=O)NCCNc4ccc5c(c4)C(=O)N(C4CCC(=O)NC4=O)C5=O)CC3)cc2)nc1Nc1cccc(S(=O)(=O)NC(C)(C)C)c1` (stereo not drawn) [JA-242, 2-(4-(4-((4-((3-(N-(tert-butyl)sulfamoyl)phenyl)amino)-5-methylpyrimidin-2-yl)amino)phenyl)piperazin-1-yl)-N-(2-((2-(2,6-dioxopiperidin-3-yl)-1,3-dioxoisoindolin-5-yl)amino)ethyl)acetamide]: 0.543 µM; `Cc1cnc(Nc2ccc(N3CCN(CC(=O)NCCCCNc4ccc5c(c4)C(=O)N(C4CCC(=O)NC4=O)C5=O)CC3)cc2)nc1Nc1cccc(S(=O)(=O)NC(C)(C)C)c1` (stereo not drawn) [JA-243, 2-(4-(4-((4-((3-(N-(tert-butyl)sulfamoyl)phenyl)amino)-5-methylpyrimidin-2-yl)amino)phenyl)piperazin-1-yl)-N-(4-((2-(2,6-dioxopiperidin-3-yl)-1,3-dioxoisoindolin-5-yl)amino)butyl)acetamide]: 1.98 µM; `Cc1cnc(Nc2ccc(N3CCN(CC(=O)NCCCCCNc4ccc5c(c4)C(=O)N(C4CCC(=O)NC4=O)C5=O)CC3)cc2)nc1Nc1cccc(S(=O)(=O)NC(C)(C)C)c1` (stereo not drawn) [JA-244, 2-(4-(4-((4-((3-(N-(tert-butyl)sulfamoyl)phenyl)amino)-5-methylpyrimidin-2-yl)amino)phenyl)piperazin-1-yl)-N-(5-((2-(2,6-dioxopiperidin-3-yl)-1,3-dioxoisoindolin-5-yl)amino)pentyl)acetamide]: above 10 µM.
The same measure for `Cc1cnc(Nc2ccc(N3CCN(CC(=O)NCCCCCCNc4ccc5c(c4)C(=O)N(C4CCC(=O)NC4=O)C5=O)CC3)cc2)nc1Nc1cccc(S(=O)(=O)NC(C)(C)C)c1` (stereo not drawn) [JA-245, 2-(4-(4-((4-((3-(N-(tert-butyl)sulfamoyl)phenyl)amino)-5-methylpyrimidin-2-yl)amino)phenyl)piperazin-1-yl)-N-(6-((2-(2,6-dioxopiperidin-3-yl)-1,3-dioxoisoindolin-5-yl)amino)hexyl)acetamide]: 0.15 µM; for `Cc1cnc(Nc2ccc(N3CCN(CC(=O)NCCCCCCCNc4ccc5c(c4)C(=O)N(C4CCC(=O)NC4=O)C5=O)CC3)cc2)nc1Nc1cccc(S(=O)(=O)NC(C)(C)C)c1` (stereo not drawn) [JA-246, 2-(4-(4-((4-((3-(N-(tert-butyl)sulfamoyl)phenyl)amino)-5-methylpyrimidin-2-yl)amino)phenyl)piperazin-1-yl)-N-(7-((2-(2,6-dioxopiperidin-3-yl)-1,3-dioxoisoindolin-5-yl)amino)heptyl)acetamide]: 0.229 µM.
The same measure for `Cc1cnc(Nc2ccc(N3CCN(CC(=O)NCCCCCCCCNc4ccc5c(c4)C(=O)N(C4CCC(=O)NC4=O)C5=O)CC3)cc2)nc1Nc1cccc(S(=O)(=O)NC(C)(C)C)c1` (stereo not drawn) [JA-247, 2-(4-(4-((4-((3-(N-(tert-butyl)sulfamoyl)phenyl)amino)-5-methylpyrimidin-2-yl)amino)phenyl)piperazin-1-yl)-N-(8-((2-(2,6-dioxopiperidin-3-yl)-1,3-dioxoisoindolin-5-yl)amino)octyl)acetamide]: 0.484 µM; for `CS(=O)(=O)c1ccc(-c2cccc3nc(Nc4ccc(N5CCN(C(=O)CCCCC#Cc6ccc7c(c6)C(=O)N(C6CCC(=O)NC6=O)C7=O)CC5)cc4)nn23)cc1` (stereo not drawn) [JA-248, 2-(2,6-Dioxopiperidin-3-yl)-5-(7-(4-(4-((5-(4-(methylsulfonyl)phenyl)-[1,2,4]triazolo[1,5-a]pyridin-2-yl)amino)phenyl)piperazin-1-yl)-7-oxohept-1-yn-1-yl)isoindoline-1,3-dione]: 0.247 µM.
Turning to `CS(=O)(=O)c1ccc(-c2cccc3nc(Nc4ccc(N5CCN(C(=O)CCCCCCc6ccc7c(c6)C(=O)N(C6CCC(=O)NC6=O)C7=O)CC5)cc4)nn23)cc1` (stereo not drawn) [JA-249, 2-(2,6-Dioxopiperidin-3-yl)-5-(7-(4-(4-((5-(4-(methylsulfonyl)phenyl)-[1,2,4]triazolo[1,5-a]pyridin-2-yl)amino)phenyl)piperazin-1-yl)-7-oxoheptyl)isoindoline-1,3-dione], the IC50 was found to be 0.104 µM.
The same measure for `CS(=O)(=O)c1ccc(-c2cccc3nc(Nc4ccc(N5CCN(C(=O)CCCCC#Cc6ccc7c(c6)CN(C6CCC(=O)NC6=O)C7=O)CC5)cc4)nn23)cc1` (stereo not drawn) [JA-250, 3-(5-(7-(4-(4-((5-(4-(Methylsulfonyl)phenyl)-[1,2,4]triazolo[1,5-a]pyridin-2-yl)amino)phenyl)piperazin-1-yl)-7-oxohept-1-yn-1-yl)-1-oxoisoindolin-2-yl)piperidine-2,6-dione]: 0.181 µM; for `CS(=O)(=O)c1ccc(-c2cccc3nc(Nc4ccc(N5CCN(C(=O)CCCCCCc6ccc7c(c6)CN(C6CCC(=O)NC6=O)C7=O)CC5)cc4)nn23)cc1` (stereo not drawn) [JA-251, 3-(5-(7-(4-(4-((5-(4-(Methylsulfonyl)phenyl)-[1,2,4]triazolo[1,5-a]pyridin-2-yl)amino)phenyl)piperazin-1-yl)-7-oxoheptyl)-1-oxoisoindolin-2-yl)piperidine-2,6-dione]: 0.337 µM.
For `CS(=O)(=O)c1ccc(-c2cccc3nc(Nc4ccc(N5CCN(CCCCCC#Cc6ccc7c(c6)C(=O)N(C6CCC(=O)NC6=O)C7=O)CC5)cc4)nn23)cc1` (stereo not drawn) [JA-252, 2-(2,6-dioxopiperidin-3-yl)-5-(7-(4-(4-((5-(4-(methylsulfonyl)phenyl)-[1,2,4]triazolo[1,5-a]pyridin-2-yl)amino)phenyl)piperazin-1-yl)hept-1-yn-1-yl)isoindoline-1,3-dione], the IC50 was determined as 0.0246 µM.
Next, `CS(=O)(=O)c1ccc(-c2cccc3nc(Nc4ccc(N5CCN(CCCCCCCc6ccc7c(c6)C(=O)N(C6CCC(=O)NC6=O)C7=O)CC5)cc4)nn23)cc1` (stereo not drawn) [JA-253, 2-(2,6-Dioxopiperidin-3-yl)-5-(7-(4-(4-((5-(4-(methylsulfonyl)phenyl)-[1,2,4]triazolo[1,5-a]pyridin-2-yl)amino)phenyl)piperazin-1-yl)heptyl)isoindoline-1,3-dione]: 0.298 µM.
For the compound `CS(=O)(=O)c1ccc(-c2cccc3nc(Nc4ccc(N5CCN(CCCCCCNc6ccc7c(c6)C(=O)N(C6CCC(=O)NC6=O)C7=O)CC5)cc4)nn23)cc1` (stereo not drawn) [JA-254, 2-(2,6-Dioxopiperidin-3-yl)-5-((6-(4-(4-((5-(4-(methylsulfonyl)phenyl)-[1,2,4]triazolo[1,5-a]pyridin-2-yl)amino)phenyl)piperazin-1-yl)hexyl)amino)isoindoline-1,3-dione], the IC50 was found to be 1.15 µM.
Next, `CS(=O)(=O)c1ccc(-c2cccc3nc(Nc4ccc(N5CCN(C(=O)CCCCCOc6ccc7c(c6)C(=O)N(C6CCC(=O)NC6=O)C7=O)CC5)cc4)nn23)cc1` (stereo not drawn) [JA-255, 2-(2,6-Dioxopiperidin-3-yl)-5-((6-(4-(4-((5-(4-(methylsulfonyl)phenyl)-[1,2,4]triazolo[1,5-a]pyridin-2-yl)amino)phenyl)piperazin-1-yl)-6-oxohexyl)oxy)isoindoline-1,3-dione]: 0.259 µM.

Source of the values: US20230093099A1, “COMPOUNDS AND METHODS OF TREATING CANCERS” (CULLGEN (SHANGHAI), INC., priority 2019, published 2023).
